Results taken from PMC4406830 (Biochemistry, 2015).

Tests used:
MtmC [1] = target: T1, MtmC (Streptomyces argillaceus, UniProt Q194Q4); assay: crystal structure, […] Å; format: binding; conditions: binary complex; central-domain site; crystals pH 5.5
T1 sequence (Q194Q4 1-420): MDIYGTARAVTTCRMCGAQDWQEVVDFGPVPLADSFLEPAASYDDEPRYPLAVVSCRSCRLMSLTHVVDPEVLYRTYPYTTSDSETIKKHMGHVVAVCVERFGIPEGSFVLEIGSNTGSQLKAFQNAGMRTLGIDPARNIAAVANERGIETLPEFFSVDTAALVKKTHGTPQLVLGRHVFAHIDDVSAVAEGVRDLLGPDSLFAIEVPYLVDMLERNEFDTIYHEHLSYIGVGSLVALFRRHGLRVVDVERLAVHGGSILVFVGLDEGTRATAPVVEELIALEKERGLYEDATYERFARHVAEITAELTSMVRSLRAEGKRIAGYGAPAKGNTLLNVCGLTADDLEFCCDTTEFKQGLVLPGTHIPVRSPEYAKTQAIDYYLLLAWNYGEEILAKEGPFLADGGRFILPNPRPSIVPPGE

MtmC [2] = target: T1, MtmC; assay: crystal structure, […] Å; format: binding; conditions: binary complex; C-terminal domain site; crystals pH 5.5

Structure (SMILES): C[S+](CC[C@H](N)C(=O)O)C[C@H]1O[C@@H](n2cnc3c(N)ncnc32)[C@H](O)[C@@H]1O (some centres unmarked) [SAM]
- crystal structure, 2.2 Å (MtmC [1]): 4RVD (complex with SAM)

Structure (SMILES): Cc1cn([C@H]2C[C@H](O)[C@@H](COP(=O)(O)OP(=O)(O)O)O2)c(=O)[nH]c1=O [TDP]
- crystal structure, 2.7 Å (MtmC [2]): 4RVF (complex with TDP)
